Measured values taken from patent US20210236678A1, “HOUSEHOLD PRODUCT DELIVERING WARMING AND/OR TINGLING SENSATIONS” (TAKASAGO INTERNATIONAL CORPORATION, priority 2016, published 2021).

Legend:
[1] = tested on: warming perception in the nose; experiment: Perception test for warming agents (panel smells samples; rating and ranking); type: in vivo; details: panel of 20 subjects; for Mean rank (less warming = rank 1, more warming = rank 4) / Nemenyi multiple comparison test of warming ranking vs reference capsaicin: 1% in TEC; for Mean rank (less warming = rank 1, more warming = rank 4) / warming perception in the nose (rating), compared to the reference capsaicin: smelled; for warming perception in the nose (rating), compared to the reference capsaicin: 1% in Triethyl Citrate (TEC), scale 0 to 100, ANOVA and Student's t-test
human TRPA1 = molecular target: T1, human TRPA1 (Homo sapiens, UniProt O75762); experiment: Screening on receptors TRPA1 (Fluo-8 calcium fluorescence, FLIPR, HEK-293 cells); type: cell-based; details: for EC50: HEK-293 cells stably transfected with human TRPA1, agonist, normalised to spilanthol EC100, elemi oil molarity assumes molecular weight of elemol; for agonist activity on TRPA1 compared to spilanthol (reference): HEK-293 cells with human TRPA1
T1 construct: expressed in transfected cells; host or cells: HEK-293
Experimental: The following are the test protocols used in determining whether fragrance ingredients show a response on the TRPA1 and TRPV1 receptors which are associated with tingling and warming sensations respectively. In all cases, the reaction is measured by fluorescence imaging using high throughput screening equipment.
Method for Screening on Receptors TRPA1:
HEK-293 (Human Embryonic Kidney) cells stably transfected with human TRPA1 were grown in a culture medium of EMEM (medium Essential Medium Eagle with Earl's salts balanced salt solution (Lonza catalogue No BE12-125F), 5 mL of 200 mM Ultraglutamine 1 (Lonza Catalogue No BE17-605E/U1), 5 mL of 100× Penicillin/Streptomycin (Lonza Catalogue No DE17-602E) 50 mL of Fetal bovine serum (Euroclone Cat No ECS0180L) 2 mL of 100 mg/mL Genticin sulphate (G418 sulphate InvivoGen CatAnt-gn-5).
10,000 cells/well were seeded in a 384 MTP in complete medium. Then, after 24 hours, the culture medium was manually removed. The cells were loaded with 20 μL/well of 0.5× Fluo-8 NW dye in standard Tyrode's buffer (Screen Quest™ Fluo-8 No wash Calcium assay kit supplied by AAT Bioquest catalogue No 26316). The plate was incubated for 1 hour at room temperature in the dark. 10 μL/well of test chemaesthetic agents were injected and controlled with the FLIPR^TETRA (Molecular Devices). The emitted fluorescence signal at 520 nm was recorded for 3 minutes. The compound multiwall plate contained the samples at 8 different doses in quadruplicate data points. Dose response of the samples were performed starting from 100 mM concentration in 100% DMSO with a serial dilution of 1:2 and then diluted in assay buffer at the final concentration of 100 μM, 50 μM, 25 μM, 12.5 μM, 6 μM, 3 μM, 1.5 μM, and 0.7 μM.
In the compound plate were also present a dose response of the reference agonist at 8 concentrations and in duplicate. Spilanthol was the reference agonist for TRPA1 in this study. These reference controls dosed as 16 wells (duplicates for each concentration) of reference agonist at ECioo corresponded to the MAX signal response (100% activity).
There were also 16 wells of blanks, i.e. assay buffers without either a test sample or reference compound which corresponded to the MIN signal response (0% activity). MAX and MIN controls were used for data analysis (RZ' calculation) and normalization of compound activity.
For data analysis the response value was calculated as the maximum signal of the kinetic trace after the injection minus the median of the points before injection and multiplied by the normalization factor (NF). The normalisation factor was the baseline mean of all wells in the plate divided by the baseline of a specific well.
To calculate the % of activity of the sample the response value was normalized versus MAX signal controls and MIN Signal controls to obtain the activity % according to the following formula: […]
The normalized data in percent activity were then used to perform curve fitting and EC50 calculation corresponding to the concentration that gave 50% of activation of the receptor (within a curve fitting program within the data analysis software).

[2] = tested on: tingling sensation in the nose; details: 3% in Triethyl Citrate (TEC); panel of 80 subjects; scale 0 to +100
[3] = tested on: tingling perception in the nose; experiment: Perception test for tingling agents (panel smells samples; rating and ranking); type: in vivo; details: panel of 20 subjects, smelled
Experimental: The reference spilanthol is contained in jambu and known for its tingling effect on the skin/the tongue (U.S. Pat. No. 9,890,567; J. Paulraj et al., Advances in Pharmacological Sciences, Vol. 2013, Article ID 510298, 22 pages). The samples were prepared as solutions of the pure raw materials at 1% in Triethyl Citrate (TEC), and portions decanted into small jars for testing. In a first part of the evaluation, the subjects of the panel smell the samples one by one and rate them on the following scale: tingling perception in the nose: 0 (not at all) to 100 (very strong sensation). In a second part of the evaluation, the subjects of the panel rank the […] agents from the less tingling agent (rank 1) to the more tingling agents (rank 4). The mean values obtain for the ranking where as follows: […]

human TRPV1 = molecular target: T2, human TRPV1 (Homo sapiens, UniProt Q8NER1); experiment: Screening on receptors TRPV1 (fluorescence imaging, CHO-K1 cells); type: cell-based; details: for agonist activity on TRPV1 compared to capsaicin (reference): CHO-K1 cells with human TRPV1
T2 construct: expressed in transfected cells; host or cells: CHO-K1
T2 sequence (Q8NER1 whole entry): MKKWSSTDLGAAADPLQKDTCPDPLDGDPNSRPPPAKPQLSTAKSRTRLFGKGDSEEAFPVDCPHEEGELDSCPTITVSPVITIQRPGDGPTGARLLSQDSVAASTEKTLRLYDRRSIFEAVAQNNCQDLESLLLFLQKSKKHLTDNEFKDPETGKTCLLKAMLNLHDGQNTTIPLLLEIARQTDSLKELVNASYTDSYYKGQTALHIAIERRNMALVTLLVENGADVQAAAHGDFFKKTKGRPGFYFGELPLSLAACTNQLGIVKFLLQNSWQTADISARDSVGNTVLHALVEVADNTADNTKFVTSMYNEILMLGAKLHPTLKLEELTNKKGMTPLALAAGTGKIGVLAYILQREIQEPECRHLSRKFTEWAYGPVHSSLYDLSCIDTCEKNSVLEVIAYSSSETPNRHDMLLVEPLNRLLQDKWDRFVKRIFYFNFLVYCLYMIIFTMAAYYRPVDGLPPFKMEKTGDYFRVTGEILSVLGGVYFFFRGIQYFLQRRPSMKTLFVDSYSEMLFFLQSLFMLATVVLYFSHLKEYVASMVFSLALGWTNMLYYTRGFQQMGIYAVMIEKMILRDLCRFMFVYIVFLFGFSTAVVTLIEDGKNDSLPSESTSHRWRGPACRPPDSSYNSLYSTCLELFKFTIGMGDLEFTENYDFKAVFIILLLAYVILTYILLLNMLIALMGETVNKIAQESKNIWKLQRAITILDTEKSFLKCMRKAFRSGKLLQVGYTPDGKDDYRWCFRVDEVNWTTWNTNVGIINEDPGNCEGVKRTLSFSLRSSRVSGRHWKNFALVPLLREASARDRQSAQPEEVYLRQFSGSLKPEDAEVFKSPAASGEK

T1 sequence (O75762 whole entry): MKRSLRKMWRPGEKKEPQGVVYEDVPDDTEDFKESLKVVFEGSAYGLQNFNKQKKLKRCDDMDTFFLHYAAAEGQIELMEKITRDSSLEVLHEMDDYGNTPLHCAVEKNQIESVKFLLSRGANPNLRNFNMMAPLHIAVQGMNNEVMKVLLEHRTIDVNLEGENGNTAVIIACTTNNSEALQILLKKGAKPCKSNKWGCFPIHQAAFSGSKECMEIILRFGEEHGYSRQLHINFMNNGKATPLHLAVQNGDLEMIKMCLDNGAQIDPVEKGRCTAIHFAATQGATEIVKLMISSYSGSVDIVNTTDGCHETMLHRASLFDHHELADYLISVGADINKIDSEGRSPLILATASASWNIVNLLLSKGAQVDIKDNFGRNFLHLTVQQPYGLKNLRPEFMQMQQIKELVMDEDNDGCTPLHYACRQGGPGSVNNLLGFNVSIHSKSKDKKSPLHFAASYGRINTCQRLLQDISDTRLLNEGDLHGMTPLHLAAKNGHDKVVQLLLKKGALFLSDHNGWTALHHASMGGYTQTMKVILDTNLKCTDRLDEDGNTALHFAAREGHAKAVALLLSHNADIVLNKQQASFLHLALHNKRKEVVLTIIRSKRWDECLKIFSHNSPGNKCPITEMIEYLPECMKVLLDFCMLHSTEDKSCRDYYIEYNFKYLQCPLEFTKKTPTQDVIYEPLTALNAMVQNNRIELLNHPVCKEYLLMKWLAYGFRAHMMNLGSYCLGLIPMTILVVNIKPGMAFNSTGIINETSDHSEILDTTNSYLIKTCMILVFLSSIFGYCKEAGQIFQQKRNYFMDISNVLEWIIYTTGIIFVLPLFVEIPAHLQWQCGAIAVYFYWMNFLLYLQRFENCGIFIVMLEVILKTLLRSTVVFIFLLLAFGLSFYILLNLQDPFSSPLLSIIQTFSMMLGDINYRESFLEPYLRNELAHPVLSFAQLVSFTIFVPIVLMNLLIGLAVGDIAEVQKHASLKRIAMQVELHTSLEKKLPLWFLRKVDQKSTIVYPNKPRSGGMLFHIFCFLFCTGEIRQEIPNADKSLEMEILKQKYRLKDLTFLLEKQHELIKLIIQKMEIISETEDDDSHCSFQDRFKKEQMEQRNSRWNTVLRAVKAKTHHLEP

| EC50 (human TRPA1) [µM] | agonist activity on TRPV1 compared to capsaicin (reference) (human TRPV1) | SMILES | Mean rank (less warming = rank 1, more warming = rank 4) [1] | agonist activity on TRPA1 compared to spilanthol (reference) (human TRPA1) | tingling sensation in the nose, isopulegol compared with menthoxypropanediol [2] | Nemenyi multiple comparison test of warming ranking vs reference capsaicin [1] | warming perception in the nose (rating), compared to the reference capsaicin [1] | other results |
| --- | --- | --- | --- | --- | --- | --- | --- | --- |
|  |  | COc1cc(CNC(=O)CCCC/C=C/C(C)C)ccc1O [capsaicin, reference compound] | 1.650 |  |  |  |  |  |
| 57 |  | C=C(C)[C@@H]1CC[C@@H](C)C[C@H]1O [isopulegol] |  | comparable agonists for TRPA1 | improved tingling perception |  |  |  |
| 35.5 |  | C/C=C/C=C\CC/C=C/C(=O)NCC(C)C [spilanthol] |  |  |  |  |  | Mean rank (less tingling = rank 1, more tingling = rank 4) ([3]; 1% in TEC): 1.150; tingling perception in the nose (rating), compared to the reference spilanthol ([3]; 1% in Triethyl Citrate (TEC), scale 0 to 100, ANOVA and Student's t-test): little effect at all |
|  | weaker agonists for TRPV1 than capsaicin | CCCCOCc1ccc(O)c(OC)c1 [vanillyl butyl ether] | 2.925 |  |  | significantly more warming | improved warming perception | EC50 (human TRPV1): 7.58 µM |
|  | weaker agonists for TRPV1 than capsaicin | CCOCc1ccc(O)c(OC)c1 [vanillyl ethyl ether] | 2.450 |  |  | significantly more warming | improved warming perception |  |

| SMILES | EC50 (human TRPA1) [µM] | agonist activity on TRPV1 compared to capsaicin (reference) (human TRPV1) | Mean rank (less warming = rank 1, more warming = rank 4) [1] | agonist activity on TRPA1 compared to spilanthol (reference) (human TRPA1) | tingling sensation in the nose, isopulegol compared with menthoxypropanediol [2] | Nemenyi multiple comparison test of warming ranking vs reference capsaicin [1] | warming perception in the nose (rating), compared to the reference capsaicin [1] | other results |
| --- | --- | --- | --- | --- | --- | --- | --- | --- |
| CC(C)[C@@H]1CC[C@@H](C)C[C@H]1OCC(O)CO (stereo partly shown) [menthoxypropanediol] | 200 |  |  | comparable agonists for TRPA1 | lower tingling sensation |  |  |  |
